Data set [1] can be described thus: WS12 leaching into PBS packaging solution during autoclave (HPLC). The format is physicochemical. Particulars: standard contact lens sterilization and storage conditions. The method, then: Silicone hydrogel contact lenses were prepared by curing the formulation for stenfilcon A in contact lens molds. The cured stenfilcon A was removed from the molds and extracted by immersing them for 215 minutes in ethanol (EtOH) containing WS12 (Tocris Bioscience) in the loading concentrations shown in Table I. The lenses were removed from the EtOH and washed in DI water for approximately 6 minutes, followed by two exchanges of DI water for approximately 30 minutes each. The lenses were transferred to 6 mL glass vials containing 3 mL phosphate buffered saline at pH 7.5 (0.78 wt. % NaCl, 0.05 wt. % sodium phosphate monobasic, and 0.36 wt. % sodium phosphate dibasic), referred to herein as PBS. The vials were sealed and autoclaved.
Each autoclaved lens was transferred to a vial containing 3 ml EtOH and stored overnight on a 150 rpm shaker at room temperature to extract WS12 from the lens. The EtOH extracts and the PBS in which the lenses were autoclaved were submitted for analysis by HPLC (detection wavelength=250 nm) against calibration standards to determine the average amount of WS12 loaded into each (n=5) and whether the WS12 leaches from the lens during autoclave.

For data set [2], the target named is transient receptor potential melastatin-8 (TRPM8) ion channels (Homo sapiens, UniProt Q7Z2W7). Particulars: background statement; cited from earlier work.
transient receptor potential melastatin-8 (TRPM8) ion channels, sequence (Q7Z2W7 whole entry, species assumed): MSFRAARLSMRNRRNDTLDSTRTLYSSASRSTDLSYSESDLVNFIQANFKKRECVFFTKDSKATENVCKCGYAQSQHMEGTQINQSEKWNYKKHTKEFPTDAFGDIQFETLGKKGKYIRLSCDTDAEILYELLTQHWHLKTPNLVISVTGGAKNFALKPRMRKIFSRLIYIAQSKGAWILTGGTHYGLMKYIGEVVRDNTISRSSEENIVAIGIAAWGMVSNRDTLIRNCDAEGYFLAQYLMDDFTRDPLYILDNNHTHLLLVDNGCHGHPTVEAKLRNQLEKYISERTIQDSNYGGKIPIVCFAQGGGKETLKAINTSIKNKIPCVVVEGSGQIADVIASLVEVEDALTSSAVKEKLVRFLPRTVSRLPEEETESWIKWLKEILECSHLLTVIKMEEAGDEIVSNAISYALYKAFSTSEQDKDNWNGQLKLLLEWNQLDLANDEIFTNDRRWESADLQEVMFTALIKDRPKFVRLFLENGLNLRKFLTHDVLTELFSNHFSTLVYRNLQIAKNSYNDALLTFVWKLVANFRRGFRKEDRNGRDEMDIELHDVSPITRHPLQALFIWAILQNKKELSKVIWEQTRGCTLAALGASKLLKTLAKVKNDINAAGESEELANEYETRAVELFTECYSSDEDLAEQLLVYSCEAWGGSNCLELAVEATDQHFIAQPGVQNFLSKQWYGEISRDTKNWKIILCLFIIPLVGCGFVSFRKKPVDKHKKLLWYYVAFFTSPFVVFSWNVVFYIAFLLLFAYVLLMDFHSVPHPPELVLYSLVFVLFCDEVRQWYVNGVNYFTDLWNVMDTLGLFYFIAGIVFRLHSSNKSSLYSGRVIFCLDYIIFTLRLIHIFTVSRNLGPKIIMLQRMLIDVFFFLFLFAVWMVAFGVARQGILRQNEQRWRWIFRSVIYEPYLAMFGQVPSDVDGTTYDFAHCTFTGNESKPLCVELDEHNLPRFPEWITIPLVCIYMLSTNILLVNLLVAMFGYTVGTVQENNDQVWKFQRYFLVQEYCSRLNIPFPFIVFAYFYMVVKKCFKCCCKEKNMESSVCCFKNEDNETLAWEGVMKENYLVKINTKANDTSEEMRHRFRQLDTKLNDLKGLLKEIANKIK

`COc1ccc(NC(=O)C2CC(C)CCC2C(C)C)cc1` (centres unmarked) [WS12, N-(4-Methoxyphenyl)-5-methyl-2-(1-methylethyl)cyclohexanecarboxamide]: the “stability of WS12 in hydrogel contact lens material” value in data set [1] is “without degradation or leaching”. Besides, the “activation of TRPM8 ion channels” value in data set [2] is given as “selectively activates”.

The record behind these values is US12397518B2, “WS12-releasing contact lens” (CooperVision International Limited, priority 2021, dated 2025).
